These are literature values, as cited in patent publication US20180311203A1, “LIQUID FORMULATION OF CABAZITAXEL” (EMCURE PHARMACEUTICALS LIMITED, priority 2015, published 2018).

SMILES strings stand for the structures.

In the case of `CO[C@H]1C(=O)[C@]2(C)[C@@H](OC)C[C@H]3OC[C@@]3(OC(C)=O)[C@H]2[C@H](OC(=O)c2ccccc2)[C@]2(O)C[C@H](OC(=O)[C@H](O)[C@@H](NC(=O)OC(C)(C)C)c3ccccc3)C(C)=C1C2(C)C` [cabazitaxel, (2α,5β,7β, 10β,13a)-4-acetoxy-13-({(2R,3S)-3 [(tertbutoxycarbonyl)amino]-2-hydroxy-3-phenylpropanoyl}oxy)-1-hydroxy-7,10-dimethoxy-9-oxo-5,20-epoxytax-11-en-2-yl benzoate], the solubility in water result is reported as “about 8 pg per mL”.
